Data as given in patent publication USRE37781E1, “Substituted cyclic carbonyls and derivatives thereof useful as retroviral protease inhibitors” (DuPont Pharmaceuticals Company, priority 1991, dated 2002).
pKi: −log10 of the molar value. Like-named read-outs stand apart in the source and are kept apart here.

Assays:
[1] = molecular target: T1, HIV protease (Human immunodeficiency virus type 1 group M subtype B, UniProt P04585); experiment: biochemical; design: species or system HIV-1
T1 construct: plasmid containing HIV protease under the control of an inducible T7 promoter; made in house; host or cells: E. coli (inclusion bodies, T7 promoter)
Description: HIV Protease Inhibition Assay—Spectroscopic Method
Inclusion bodies were solubilized in 8M urea, 50 mM tris pH 8.0. Protease activity was recovered by dilution 20-fold into buffer containing 50 mM sodium acetate pH 5.5, 1 mM EDTA, 10% glycerol and 5% ethylene glycol. Enzyme was used at a final concentration of 1.0-10 ug/ml.
Stock solutions of 10 mM were prepared in DMSO.
All further dilutions were done in DMSO.

[2] = test system: HIV-1 (RF) in MT-2 cells; experiment: microbe, parasite or virus in culture; type: cell-based
Procedure, shortened: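 Read-out: gag and pol viral RNA captured by 5′-biotinylated oligonucleotides on streptavidin-coated wells, detected with alkaline phosphatase-linked reporter oligonucleotides, calibrated against BH10 in vitro transcripts. Virus stocks (RF, MN, IIIB) come from H9 cultures; MT-2 host cells kept in RPMI 1640, 5% FCS.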

[3] = Human immunodeficiency virus 1, MT2, Table 1e, read-out: IC90
[4] = Human immunodeficiency virus 1, MT2, 24 h, Table 1d, upper part, read-out: IC90
[5] = Table 1d, upper part, read-out: Ki

C=CCN1C(=O)N(CC=C)C(Cc2ccccc2)C(O)C(O)C1Cc1ccccc1 (stereo not shown) [Example 1D]
pKi ([1]; Table 1a, read-out: Ki): < 6.00

N#Cc1cccc(CN2C(=O)N(Cc3cccc(C#N)c3)[C@H](Cc3ccccc3)[C@H](O)C2CCc2ccccc2)c1 (stereo partly shown) [Example 8AN]
IC90 ([2]; Table 1e): + (+=>100 μg/mL) | pKi ([1]; Ki): < 6.00

N#Cc1cccc(CN2C(=O)N3C(Cc4ccccc4)C3C(O)C2Cc2ccccc2)c1 (stereo not shown) [Example 21F]
IC90 ([2]; Table 2j): + (+=>100 μg/mL) | pKi ([1]; Table 2j, read-out: Ki): < 6.00

O=C1N(Cc2ccccc2)C(Cc2ccccc2)C(OCc2ccccc2)C2C(Cc3ccccc3)N12 (stereo not shown) [Example 21C]
pKi ([1]; Table 2j, read-out: Ki): 6.00 to 8.00

CC(C)CCCC(C)CCN1C(=O)N(CCC(C)CCCC(C)C)C(Cc2ccccc2)C(O)C(O)C1Cc1ccccc1 (stereo not shown) [Example 1N]
pKi ([1]; Table 1a, read-out: Ki): 6.00 to 8.00

CC(C)C(NCCN1C(=O)N(CCO)C(Cc2ccccc2)C(O)C(O)C1Cc1ccccc1)C(=O)OCc1ccccc1 (stereo not shown) [Example 1L]
pKi ([1]; Table 1a, read-out: Ki): < 6.00

O=C1N(CC2CC2)C(C(F)Cc2ccccc2)[C@@H](O)[C@@H](Cc2ccccc2)N1CC1CC1 (stereo partly shown) [Example 8B]
IC90 [2, 3]: < 10 µg/mL | pKi ([1]; Table 1e, read-out: Ki): 6.00 to 8.00

O=C1OC2C(O1)C(Cc1ccccc1)N(Cc1ccc3ccccc3c1)C(=O)N(Cc1ccc3ccccc3c1)C2Cc1ccccc1 (stereo not shown) [Example 7L]
IC90 [2, 4]: > 100 µg/mL | pKi ([1]; Ki): 6.00 to 8.00

CC(=O)OC1C(O)C(Cc2ccccc2)N(Cc2ccc3ccccc3c2)C(=O)N(Cc2ccc3ccccc3c2)C1Cc1ccccc1 (stereo not shown) [Example 7K]
IC90 [2, 4]: > 100 µg/mL | pKi [1, 5]: 6.00 to 8.00

CC(C)C(NCCN1C(=O)N(CCNC(C(=O)OCc2ccccc2)C(C)C)C(Cc2ccccc2)C(O)C(O)C1Cc1ccccc1)C(=O)OCc1ccccc1 (stereo not shown) [Example 1U]
pKi ([1]; Table 1a, read-out: Ki): < 6.00

O=C1N(CC2CC2)[C@H](Cc2ccccc2)C[C@@H](O)[C@@H](Cc2ccccc2)N1CC1CC1 [Example 7U]
IC90 [2, 4]: < 10 µg/mL | pKi [1, 5]: > 8.00

O=C1N(Cc2ccccc2)C(Cc2ccccc2)C(O)C2C(Cc3ccccc3)N12 (stereo not shown) [Example 21D]
IC90 ([2]; Table 2j): ++/+ (The ++/+ is used in the cases where an IC90 was determined to be >50 μg/mL) | pKi ([1]; Table 2j, read-out: Ki): < 6.00

CC(C)C(NCCN1C(=O)N(CCO)C(Cc2ccccc2)C(O)C(O)C1Cc1ccccc1)C(=O)OCc1ccccc1 (stereo not shown) [Example 1T]
pKi ([1]; Table 1a, read-out: Ki): 6.00 to 8.00

O=C1N(CC2CC2)C(Cc2ccccc2)C2OS(=O)OC2C(Cc2ccccc2)N1CC1CC1 (stereo not shown) [Example 7F]
IC90 [2, 4]: < 10 µg/mL | pKi [1, 5]: > 8.00

O=C1N[C@H](C(O)Cc2ccccc2)[C@@H](O)[C@@H](Cc2ccccc2)N1Cc1ccccc1 (stereo partly shown) [Example 8Q]
IC90 ([2]; Table 1e): ++ (++=10 to 100 μg/mL) | pKi ([1]; Table 1e, read-out: Ki): 6.00 to 8.00

O=C1OC2C(O1)C(Cc1ccccc1)N(CC1CC1)C(=O)N(CC1CC1)C2Cc1ccccc1 (stereo not shown) [Example 7G]
IC90 [2, 4]: < 10 µg/mL | pKi ([1]; Ki): 6.00 to 8.00

CC(C)CCCC(C)CCN1C(=O)NC(Cc2ccccc2)C(O)C(O)C1Cc1ccccc1 (stereo not shown) [Example 1Q]
pKi ([1]; Table 1a, read-out: Ki): 6.00 to 8.00

CC(=O)OC1C(OC(C)=O)C(Cc2ccccc2)N(Cc2ccc3ccccc3c2)C(=O)N(Cc2ccc3ccccc3c2)C1Cc1ccccc1 (stereo not shown) [Example 7J]
IC90 [2, 4]: > 100 µg/mL | pKi [1, 5]: 6.00 to 8.00

O=C1N(CC2CC2)C(Cc2ccccc2)C2OC(=S)OC2C(Cc2ccccc2)N1CC1CC1 (stereo not shown) [Example 7I]
IC90 [2, 4]: < 10 µg/mL | pKi [1, 5]: 6.00 to 8.00

O=C1N(CC2CC2)C(C(O)Cc2ccccc2)[C@@H](O)[C@@H](Cc2ccccc2)N1CC1CC1 (stereo partly shown) [Example 7Z]
IC90 [2, 3]: < 10 µg/mL | pKi ([1]; Table 1e, read-out: Ki): 6.00 to 8.00

CC1(C)OC2C(O1)C(Cc1ccccc1)N(Cc1ccc3ccccc3c1)C(=O)N(Cc1ccc3ccccc3c1)C2Cc1ccccc1 (stereo not shown) [Example 7R]
IC90 [2, 4]: > 100 µg/mL | pKi [1, 5]: < 6.00

O=C1OC2C(OC1=O)C(Cc1ccccc1)N(Cc1ccc3ccccc3c1)C(=O)N(Cc1ccc3ccccc3c1)C2Cc1ccccc1 (stereo not shown) [Example 7P]
IC90 [2, 4]: < 10 µg/mL | pKi [1, 5]: > 8.00

C=CCN1C(=O)N(CC=C)C(Cc2ccccc2)C(O)C(O)C1Cc1ccccc1 (stereo not shown) [Example 1H]
pKi ([1]; Table 1a, read-out: Ki): < 6.00

C=CCN1C(=O)N(CCCC)C(Cc2ccccc2)C2OC(=O)OC2C1Cc1ccccc1 (stereo not shown) [Example 7E]
IC90 [2, 4]: < 10 µg/mL | pKi ([1]; Ki): 6.00 to 8.00

COCCOCCOCCN1C(=O)NC(Cc2ccccc2)C(O)C(O)C1Cc1ccccc1 (stereo not shown) [Example 1R]
pKi ([1]; Table 1a, read-out: Ki): < 6.00

CC(C)=CCN1C(=O)NC(Cc2ccccc2)C(O)C(O)C1Cc1ccccc1 (stereo not shown) [Example 1AE]
pKi ([1]; Table 1a, read-out: Ki): > 8.00

COCCOCO[C@H]1[C@@H](Cc2ccccc2)N(Cc2ccc3ccccc3c2)C(=O)N(Cc2ccc3ccccc3c2)[C@@H]1C(F)Cc1ccccc1 (stereo partly shown) [Example 8D]
pKi ([1]; Table 1e, read-out: Ki): 6.00 to 8.00
